From US20050096311A1, “Compositions and methods for treatment of nervous system disorders” (CNS Response, priority 2003, published 2005)

How the values were obtained:
norepinephrine uptake = norepinephrine uptake (Homo sapiens, UniProt P23975); details: cited from earlier work
pain of migraine = details: oral or intrapulmonary administration; cited from earlier work
[1] = test system: Parkinson's disease symptoms; details: cited from earlier work
[2] = cited from earlier work
[3] = cited from earlier work; remark: listed apart in the source
[4] = test system: nervous system disorder symptoms in affected patients; assay: Randomized double-blind study in naive patients presenting at least one symptom of a nervous system disorder (Example 1); type: in vivo
Text: The design of this study is a randomized double-blind protocol in which a first set of clinicians diagnosed a group of naive (i.e., previously untreated) patients presenting at least one symptom of a nervous system disorder.
A second set of clinicians will monitor the compliance of each patient and assess the presence or absence of at least one symptom of a nervous system disorder on a weekly basis throughout the treatment period. At the termination of the study a third set of clinicians will evaluate the data and document the results.
Relative to Group I, all treatment groups are expected to reduce at least one symptom of a nervous system disorder except Group IV.

[5] = biphasic elimination; cited from earlier work
[6] = formulated as a hydrochloride salt; cited from earlier work
dopamine uptake = dopamine uptake (Homo sapiens, UniProt Q01959); details: cited from earlier work
migraine attacks = details: given prophylactically; cited from earlier work

Chain of norepinephrine uptake (P23975 whole entry): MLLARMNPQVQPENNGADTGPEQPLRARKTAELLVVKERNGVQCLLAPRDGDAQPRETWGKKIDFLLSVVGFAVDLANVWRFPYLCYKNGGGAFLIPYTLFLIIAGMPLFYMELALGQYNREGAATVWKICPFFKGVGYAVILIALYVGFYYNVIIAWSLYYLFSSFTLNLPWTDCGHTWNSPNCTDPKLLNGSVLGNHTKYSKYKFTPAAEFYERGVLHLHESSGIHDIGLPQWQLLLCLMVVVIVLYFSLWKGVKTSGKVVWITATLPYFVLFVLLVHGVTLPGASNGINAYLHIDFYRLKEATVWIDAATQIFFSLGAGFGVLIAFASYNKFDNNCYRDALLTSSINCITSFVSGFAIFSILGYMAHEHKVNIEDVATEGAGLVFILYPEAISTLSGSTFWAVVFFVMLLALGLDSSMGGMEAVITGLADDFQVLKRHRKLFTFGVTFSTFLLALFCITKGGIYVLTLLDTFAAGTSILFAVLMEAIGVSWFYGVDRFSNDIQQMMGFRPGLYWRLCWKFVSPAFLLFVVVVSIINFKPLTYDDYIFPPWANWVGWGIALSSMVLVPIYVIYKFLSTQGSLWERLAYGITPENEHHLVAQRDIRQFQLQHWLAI
Chain of dopamine uptake (Q01959 whole entry): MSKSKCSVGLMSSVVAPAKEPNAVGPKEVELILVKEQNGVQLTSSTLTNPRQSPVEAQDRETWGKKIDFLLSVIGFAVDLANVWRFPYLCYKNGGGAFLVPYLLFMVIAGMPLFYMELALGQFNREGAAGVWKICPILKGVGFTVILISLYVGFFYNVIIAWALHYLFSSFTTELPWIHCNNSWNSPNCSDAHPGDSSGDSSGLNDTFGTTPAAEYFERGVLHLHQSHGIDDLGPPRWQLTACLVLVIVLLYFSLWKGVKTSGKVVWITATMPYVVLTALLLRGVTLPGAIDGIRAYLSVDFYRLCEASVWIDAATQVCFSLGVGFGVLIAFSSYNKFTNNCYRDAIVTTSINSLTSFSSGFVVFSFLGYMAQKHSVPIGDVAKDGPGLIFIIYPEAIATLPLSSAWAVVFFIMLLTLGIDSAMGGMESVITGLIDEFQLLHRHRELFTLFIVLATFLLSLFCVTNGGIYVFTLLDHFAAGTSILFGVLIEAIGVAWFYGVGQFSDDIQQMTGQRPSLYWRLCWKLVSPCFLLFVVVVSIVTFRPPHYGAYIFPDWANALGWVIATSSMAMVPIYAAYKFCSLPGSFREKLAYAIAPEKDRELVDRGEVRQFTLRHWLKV

C[C@@H]1NC(C)(C)CO[C@@]1(O)c1cccc(Cl)c1 [(S,S)-hydroxybupropion]
inhibition of norepinephrine uptake (norepinephrine uptake): effective inhibitor of only norepinephrine uptake

CN1C[C@H](C(=O)N[C@]2(C)O[C@@]3(O)[C@@H]4CCCN4C(=O)[C@H](Cc4ccccc4)N3C2=O)C=C2c3cccc4[nH]cc(c34)C[C@H]21 [Ergotamine]
time to pain relief (pain of migraine): 5 h

N[C@@H](Cc1ccc(O)c(O)c1)C(=O)O [Levodopa, L-3,4-dihydroxyphenylalanine]
reduction in symptomology ([1]; Parkinson's disease patients): 50%
treated patients showing the reduction in symptomology ([1]; Parkinson's disease patients): 75%

NC(=O)N1c2ccccc2CC(O)c2ccccc21 (stereo not shown) [MHD, 10, 11-dihydro-10-OH-carbazepine]
increase in the non-protein bound plasma MHD concentration ([2]; co-administration of oxcarbazepine and vilooxazoine): 11%
plasma protein binding ([3]; distribution between blood cell compartments): low level of plasma protein binding
mean non-protein bound MHD fraction ([3]; epileptic patients): approximately 56.7 +/−5.5%

CC(NC(C)(C)C)C(=O)c1cccc(Cl)c1 (stereo not drawn) [bupropion, m-chloro-α-(t-butylamino)propiophenone]
Percent Reduction In Nervous System Disorder Symptoms In Affected Patients ([4]; Symptom EIGHT): 25 ± 2.5%
Percent Reduction In Nervous System Disorder Symptoms In Affected Patients ([4]; Symptom FIVE): 25 ± 2.5%
Percent Reduction In Nervous System Disorder Symptoms In Affected Patients ([4]; Symptom FOUR): 25 ± 2.5%
Percent Reduction In Nervous System Disorder Symptoms In Affected Patients ([4]; Symptom ONE): 25 ± 2.5%
Percent Reduction In Nervous System Disorder Symptoms In Affected Patients ([4]; Symptom SEVEN): 25 ± 2.5%
Percent Reduction In Nervous System Disorder Symptoms In Affected Patients ([4]; Symptom SIX): 25 ± 2.5%
Percent Reduction In Nervous System Disorder Symptoms In Affected Patients ([4]; Symptom THREE): 25 ± 2.5%
Percent Reduction In Nervous System Disorder Symptoms In Affected Patients ([4]; Symptom TWO): 25 ± 2.5%
elimination half-life [5]: 11 to 14 h
redistribution half-life [5]: about one
solubility [6]: water-soluble

C[C@@](Cc1ccc(O)c(O)c1)(NN)C(=O)O [carbidopa]
reduction of the dose of levodopa ([1]; concurrent administration of carbidopa): ≤ 75%

C[C@H]1NC(C)(C)CO[C@]1(O)c1cccc(Cl)c1 [hydroxybupropion]
inhibition of norepinephrine uptake (norepinephrine uptake): effective inhibitor
inhibition of dopamine uptake (dopamine uptake): effective inhibitor

NC(=O)N1c2ccccc2CC(=O)c2ccccc21 [oxcarbazepine]
Percent Reduction In Nervous System Disorder Symptoms In Affected Patients ([4]; Symptom EIGHT): 10 ± 1%
Percent Reduction In Nervous System Disorder Symptoms In Affected Patients ([4]; Symptom FIVE): 10 ± 1%
Percent Reduction In Nervous System Disorder Symptoms In Affected Patients ([4]; Symptom FOUR): 10 ± 1%
Percent Reduction In Nervous System Disorder Symptoms In Affected Patients ([4]; Symptom ONE): 10 ± 1%
Percent Reduction In Nervous System Disorder Symptoms In Affected Patients ([4]; Symptom SEVEN): 10 ± 1%
Percent Reduction In Nervous System Disorder Symptoms In Affected Patients ([4]; Symptom SIX): 10 ± 1%
Percent Reduction In Nervous System Disorder Symptoms In Affected Patients ([4]; Symptom THREE): 10 ± 1%
Percent Reduction In Nervous System Disorder Symptoms In Affected Patients ([4]; Symptom TWO): 10 ± 1%
plasma half-life ([2]; 600 mg oxcarbazepine dose): approximately 19.3±6.2 hours

CC(C)NCC(O)COc1cccc2ccccc12 (stereo not shown) [propranolol]
patients with reduced frequency and intensity of migraine attacks (migraine attacks): 70%
